In US6890950B2, “Lapachone delivery systems, compositions and uses related thereto” (priority 2002, dated 2005):
Entries after “also recorded” stand apart in the source; their conditions may differ. Read-outs that look alike come from different tables or passages of the source.

What was measured:
[1] = system: NQO1-expressing LNCaP clone (LN-NQ Cl 1-4, 10); test: apoptosis in transfected LNCaP clones; assay type: cell-based, human; conditions: 10 μM β-lap
Description: (§1) LNCaP cells were transfected with either pcDNA3 empty vector or pcDNA3 containing full-length NQO1 cDNA.

[2] = system: LNCaP vector alone clones; test: apoptosis in transfected LNCaP clones; assay type: cell-based, human; conditions: 10 μM β-lap
Description: as §1

athymic nude mice = test: maximum tolerated dose in athymic nude mice; assay type: in vivo, mouse
Description: MDA_MB-468 NQO1+ Tumor (468) cells were injected into the right and left flanks of 18-20 gm athymic nude mice and tumors of 20-50 mm^3 volume were allowed to grow in 20-30 days. When tumor volumes reached 20-30 mm^3 (at day 26), mice were then treated (by intraperitoneal injection) every other day with the indicated doses (in mg/kg) of β-lap (55-70 mg/kg were tested). The maximum tolerated dose of β-lap in athymic nude mice was determined to be […]). Ten (10) β-lap doses were given every other day, and data are shown for only one cycle of β-lap treatment. Multiple cycles of treatments are now being tested, as are various dose regimen and scheduling protocols.
β-lap bioavailability and antitumor activity. To show efficacy of β-lap in vivo, a systemic delivery system was developed for this water-insoluble drug. β-Lap complexes with β-hydroxypropyl-β-cyclodextrin (HP-β-CD) that dissolves the drug and makes it bioavailable. The toxicity of HP-β-CD.β-lap in 18-20 gm athymic nude mice was examined and the maximum tolerated dose (MTD) was ˜75 mg/kg. […] We tested the effects of β-lap administered i.p. in athymic nude mice bearing NQO1^+ MDA-MB-468 (468) human breast cancer xenografts.

A549 NSCLC cells = test: survival and apoptosis (PARP cleavage) of NSCLC cells; assay type: cell-based, human; conditions: 8 μM β-lap, 4 h
Description: NQO1-dependent apoptosis of A549 or CC-10 NSCLC cells by β-lap.

C57/blk6 mice = conditions: cited from earlier work
PC-3 = test: TUNEL apoptosis assay; assay type: cell-based, human; conditions: 10 μM, 4h, TUNEL 48h
[3] = system: MDA-MB-468 NQO1+ human breast cancer xenografts; test: antitumor activity against xenografts; assay type: in vivo, athymic nude mice; conditions: for antitumor activity: 55-70 mg/kg i.p. every other day
Description: Athymic nude mice bearing […] tumors were treated with the indicated mg/mk doses of β-lap i.p. every other day, beginning at day 26.
When tumor volumes reached 20-30 mm^3 (at day 26), mice were then treated (by intraperitoneal injection) every other day with the indicated doses (in mg/kg) of β-lap (55-70 mg/kg were tested). […] Multiple cycles of treatments are now being tested, as are various dose regimen and scheduling protocols.

CC-10 tumor cell lines = test: lethality and apoptosis of NSCLC cells; assay type: cell-based, mouse
Description: PARP cleavage to a 60 kDa fragment and specific p53 proteolysis are diagnostic for β-lap-induced μ-calpain-mediated apoptosis.

[4] = β-lap release from polymer millirods in PBS; assay type: physicochemical; conditions: fabrication and controlled release

In the case of `CC1(C)CCC2=C(O1)c1ccccc1C(=O)C2=O` [β-lap, β-Lapachone], the apoptosis [1] is reported as 80-90%, the apoptosis [2] is reported as under 5% and the “maximum tolerated dose (MTD)” value (athymic nude mice; 18-20 gm athymic nude mice) is reported as 80 mg/kg. The “greater bioavailability in vivo than in previous studies” value (athymic nude mice; HP-β-CD complex MTD vs lipiodol LD50) was about 3 fold, the lethality and apoptosis (A549 NSCLC cells) was “caused lethality and apoptosis” and the LD50 (C57/blk6 mice; Cremophor as vehicle) was over 150 mg/kg. The LD50 (C57/blk6 mice; lipiodol, C57/blk6 mice) was over 150 mg/kg, the “Apoptosis (%) After Drug Treatment” value (PC-3; PC-3 + DC (50 μM dicoumarol)) was 0.04% and the “Apoptosis (%) After Drug Treatment” value (PC-3; PC-3 + DVED) was 91%. For the same compound, the “Apoptosis (%) After Drug Treatment” value (PC-3; PC-3) was 82%, the antitumor activity [3] was “significant antitumor responses; also recorded: Significant antitumor activity” and the antitumor activity ([3]; listed as β-Lap) was “significant antitumor activity”. The antitumor responses ([3]; 65 and 70 mg/kg i.p. every other day, 10 doses) was “Significant antitumor responses”, the lethality and apoptosis (CC-10 tumor cell lines) was “caused lethality and apoptosis” and the “sensitivity to β-lap” value (CC-10 tumor cell lines; 4 μM, 4 h) was “extremely sensitive”. The “structural integrity of released β-lap (UV-Vis spectra)” value [4] was “maintained; also recorded: maintains its structural integrity”.
